Legend:
Cal51 and T47D cells = assay: Immunoblot of RNAP II and histone marks in cells treated with flavopiridol; type: cell-based; settings: increasing sublethal doses of flavopiridol for 48 hours, FIG. 15G
Protocol: (§1) Total proteins were extracted with RIPA buffer (Santa Cruz Biotechnology, sc-24948), and 15 μg protein from each sample was run in a 4-18% SDS polyacrylamide gel (Bio-Rad), and transferred onto polyvinylidene difluoride membranes. The membranes were blocked in 5% dry milk in tris-buffered saline—Tween 20 for 1 hour. Blocked membranes were incubated overnight with primary antibodies against pSer5-RNA polymerase II (1:1000, Active motif), pSer2-RNA polymerase II (1:1000, Active motif), RNA polymerase II (1:1000, Active motif), SETD2 (1:1000, abcam), CyclinT1 (1:1000, Santa Cruz), H3K36me3 (1:5000, abcam), H3K27me3 (1:5000, Active motif), Pan-acetyl-H3 (1:5000, Cell Signaling), Histone H3 (1:5000, Cell Signaling), pMAPK (1;1000, Cell Signaling), MAPK (1;1000, Cell Signaling), pAKT (1:1000, Cell Signaling), STAT1 (1:1000, Cell Signaling), pSTAT1 (1:1000, Cell Signaling), NF-κB (1:1000, Cell Signaling), pNF-κB (1:1000), Cleaved-PARP(1:1000, Cell Signaling), Caspase-3 (1;1000, Cell Signaling), β-Actin (1;1000, Cell Signaling), GAPDH (1:1000, Cell Signaling) in 5% bovine serum albumin. After washing and incubating with the appropriate secondary antibody (anti-rabbit IgG or anti-Rat IgG (1:5000, Cell signaling)), protein signals were detected with enhanced chemiluminescence (Millipore).

Cal51 cells [1] = assay: STAT1 activation after IFN-α stimulation in flavopiridol-treated cells; type: cell-based; settings: flavopiridol for 48 hours, then IFN-α for 30 minutes, FIG. 15H
Protocol: as §1, with “(Millipore). […]” for “(Millipore).”

Cal51 cells [2] = assay: Cytotoxicity assay: relative viability after FasL stimulation with flavopiridol pre-treatment; type: cell-based; settings: 24 hours FasL, 48 hour pre-treatment with 100 μM flavopiridol, FIG. 15I
Protocol: Equal number of cells was seeded into the wells of 96-well culture plates in their corresponding medium and incubated overnight in a 5% CO2 humidified incubator. Cells were then treated with different concentrations of hhis6FasL (0.1 ng/ml-1000 ng/ml) in the presence of 10 μg/ml anti-His antibody (Cell Signaling) for 24 hours. Dead cells were removed by washing with PBS buffer and the attached cells were fixed and stained with crystal violet solution [20% methanol, 0.5% crystal violet (Sigma) in 1× phosphate-buffered saline (PBS)] for 30 min. Excess stain was removed by gently rinsing the plates in tap water, and the plates were dried at room temperature. Crystal violet crystals were redissolved in Triton (Amresco), and cell density was determined by measuring the absorbance at 570 nm in a microplate reader (Bio-Tek Instruments).

[3] = system: B16/F10 mouse melanoma cells; assay: Testing NK-mediated tumor cell killing in vivo (lung seeding of B16-OVA cells); parameters: species or system C57BL6 mice; settings: FIG. 15J
Protocol: C57Bl/6 mice were injected with control or flavopiridol (100 μM) treated 2×10^5 B16-OVA cells into tail veins. One hour later, the lungs were harvested, digested in liberase and the frequency of tumor cells was assessed using quantitative PCR (Shehata et al., 2015). mRNA levels for OVA (B16-OVA) were assessed and normalized to GAPDH. […] Six mice for each group were used. The protocol and use of mice were performed with the approval of the Cincinnati Children's Institutional Animal Care and Use Committee.

Compound: CN1CC[C@H](c2c(O)cc(O)c3c(=O)cc(-c4ccccc4Cl)oc23)[C@H](O)C1 [flavopiridol]
- RNAP II and histone marks (epigenetic and transcriptional defects) (Cal51 and T47D cells): widespread epigenetic and transcriptional defects
- response to pro-inflammatory stimuli (STAT1 activation) (Cal51 cells [1]): resistance to pro-inflammatory stimuli
- relative viability after FasL challenge (Cal51 cells [2]): resistance to pro-inflammatory stimuli and FasL challenge
- lung seeding of B16 cells (OVA mRNA normalized to GAPDH, qPCR) ([3]; B16-OVA cells treated with flavopiridol (100 μM), tail vein injection into C57Bl/6 mice, lungs after 1 hour, vs control cells): significantly increased the ability of B16 cells for lung seeding
- lung seeding of B16 cells in NK-depleted mice ([3]; as E4, mice pre-injected with anti-asialo GM1 (NK depletion)): the effect was diminished

From patent publication US20180371550A1, “LOSS OF TRANSCRIPTIONAL FIDELITY LEADS TO IMMUNOTHERAPY RESISTANCE IN CANCERS” (Children's Hospital Medical Center, priority 2015, published 2018)
